According to article PMC2675279 (The Journal of general virology, 2009):

The substances below were run on splenocytes from BALB/c mice infected with tk--HSV-2 (assay: IFN-γ ELISPOT, splenocytes after intravaginal tk--HSV-2 infection). Details: splenocytes from individual BALB/c mice after non-lethal intravaginal infection with live attenuated HSV-2, single peptides at 1 μg mL^-1 (Concanavalin A 2.5 μg mL^-1), means of duplicates.
Type: cell-based

Substance	SFU per 10^6 responder cells, tk--HSV-2 infected mice
Concanavalin A [reference compound]	TNTC ^‡
HTALATVTLKYAL [UL47 509-521]	25 SFU per 10^6 responder cells
LLYWPGVRALLGR [UL47 369-381]	21 SFU per 10^6 responder cells
YAGRMTYIATGAL [UL47 389-401]	43 SFU per 10^6 responder cells
